Drawing on patent US7932270B2 (Cytokinetics, Inc., priority 2006, dated 2011), this text covers IC50 for 24 molecules.

For the experiment, the target named is T1, chicken gizzard smooth muscle myosin subfragment-1 chemically crosslinked to cardiac or skeletal actin (Gallus gallus, UniProt P10587).
T1 construct: chicken gizzard smooth muscle myosin subfragment-1; from tissue; host or cells: chicken gizzard
Nature of the experiment: Smooth muscle myosin ATPase dose response assay (pyruvate kinase/horseradish peroxidase/pyruvate oxidase-coupled, amplex red fluorescence). In kind it is biochemical. Conditions: read-out: IC50 Arithmetic Mean. The procedure, abridged: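 EDC/NHS-crosslinked S1–actin, amount set per prep by rate titration. Buffer: 12 mM K-PIPES pH 7.00 (22° C), 100 mM KCl, 2 mM MgCl2, 0.15 mM ATP, 0.1 mM PEP, 2 mM KPi, 0.1 mM amplex red. Read ex 480/em 615 nm; IC50 = midpoint, 4-param Hill fit.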

T1 sequence (P02607 2-151): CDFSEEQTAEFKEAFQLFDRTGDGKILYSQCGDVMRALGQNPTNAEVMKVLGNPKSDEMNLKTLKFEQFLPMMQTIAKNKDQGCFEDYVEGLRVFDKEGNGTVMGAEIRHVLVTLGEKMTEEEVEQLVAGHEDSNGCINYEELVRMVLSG
T1 sequence (P10587 84-789): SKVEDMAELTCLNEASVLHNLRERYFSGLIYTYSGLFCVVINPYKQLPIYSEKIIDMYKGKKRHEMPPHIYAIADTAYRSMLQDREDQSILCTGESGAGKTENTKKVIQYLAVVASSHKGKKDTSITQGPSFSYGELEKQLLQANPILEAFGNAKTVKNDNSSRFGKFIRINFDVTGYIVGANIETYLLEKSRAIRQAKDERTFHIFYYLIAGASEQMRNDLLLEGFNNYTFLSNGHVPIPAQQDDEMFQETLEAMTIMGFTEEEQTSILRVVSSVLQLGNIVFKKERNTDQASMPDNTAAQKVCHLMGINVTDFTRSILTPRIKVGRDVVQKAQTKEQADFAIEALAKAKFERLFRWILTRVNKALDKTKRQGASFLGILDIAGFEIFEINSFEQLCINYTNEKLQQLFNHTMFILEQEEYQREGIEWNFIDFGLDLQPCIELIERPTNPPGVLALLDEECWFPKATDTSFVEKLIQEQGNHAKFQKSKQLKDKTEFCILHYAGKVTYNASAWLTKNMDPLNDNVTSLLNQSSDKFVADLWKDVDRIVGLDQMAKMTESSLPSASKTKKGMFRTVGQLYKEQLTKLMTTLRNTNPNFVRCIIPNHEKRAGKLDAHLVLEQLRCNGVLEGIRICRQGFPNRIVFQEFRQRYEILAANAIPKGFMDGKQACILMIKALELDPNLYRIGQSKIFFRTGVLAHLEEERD

As for `Cc1cc(C(=O)NC[C@H]2CCC(=O)N2CCCNC(=O)OC(C)(C)C)c(NCCc2cccc(F)c2)nc1-c1cnn(C)c1` [N-[((2R)-1-{3-[(tert-butoxy)carbonylamino]propyl}-5-oxopyrrolidin-2-yl)methyl](2-{[2-(3-fluorophenyl)ethyl]amino}-5-methyl-6-(1-methylpyrazol-4-yl)(3-pyridyl))carboxamide], the IC50 was 1460 nM. To `Cn1cc(-c2ccc(C(=O)NC[C@H]3CCC(=O)N3CCCNC(=O)OC(C)(C)C)c(NCCc3cccc(F)c3)n2)cn1` [N-[((2R)-1-{3-[(tert-butoxy)carbonylamino]propyl}-5-oxopyrrolidin-2-yl)methyl](2-{[2-(3-fluorophenyl)ethyl]amino}-6-(1-methylpyrazol-4-yl)(3-pyridyl))carboxamide] belongs 1340 nM. To `Cn1cc(-c2nc(NCCc3cccc(F)c3)c(C(=O)NC[C@H]3CCC(=O)N3CCCNC(=O)OC(C)(C)C)cc2Cl)cn1` [N-[((2R)-1-{3-[(tert-butoxy)carbonylamino]propyl}-5-oxopyrrolidin-2-yl)methyl](5-chloro-2-{[2-(3-fluorophenyl)ethyl]amino}-6-(1-methylpyrazol-4-yl)(3-pyridyl))carboxamide] belongs 443 nM; to `CC(C)(C)OC(=O)NCCCN1C(=O)CC[C@@H]1CNC(=O)c1cc(C#N)c(-c2cn[nH]c2)nc1NCCc1cccc(F)c1` [N-[((2R)-1-{3-[(tert-butoxy)carbonylamino]propyl}-5-oxopyrrolidin-2-yl)methyl](5-cyano-2-{[2-(3-fluorophenyl)ethyl]amino}-6-pyrazol-4-yl(3-pyridyl))carboxamide], 3510 nM; to `Cn1cc(-c2nc(NCCc3cccc(F)c3)c(C(=O)NC[C@H]3CCC(=O)N3CCCNC(=O)OC(C)(C)C)cc2F)cn1` [N-[((2R)-1-{3-[(tert-butoxy)carbonylamino]propyl}-5-oxopyrrolidin-2-yl)methyl](5-fluoro-2-{[2-(3-fluorophenyl)ethyl]amino}-6-(1-methylpyrazol-4-yl)(3-pyridyl))carboxamide], 322 nM. To `CC(C)(C)OC(=O)NCCCN1C(=O)CC[C@@H]1CNC(=O)c1cc(F)c(-c2cn[nH]c2)nc1NCCc1cccc(F)c1` [N-[((2R)-1-{3-[(tert-butoxy)carbonylamino]propyl}-5-oxopyrrolidin-2-yl)methyl](5-fluoro-2-{[2-(3-fluorophenyl)ethyl]amino}-6-pyrazol-4-yl(3-pyridyl))carboxamide] belongs 354 nM. Turning to `CC(C)(C)OC(=O)NCCCN1C(=O)CC[C@@H]1CNC(=O)c1ccc(-c2ccccc2C#N)nc1NCCc1cccc(F)c1` [N-[((2R)-1-{3-[(tert-butoxy)carbonylamino]propyl}-5-oxopyrrolidin-2-yl)methyl](6-(2-cyanophenyl)-2-{[2-(3-fluorophenyl)ethyl]amino}(3-pyridyl))carboxamide], the IC50 was 518 nM. As to `CC(C)(C)OC(=O)NCCCN1C(=O)CC[C@@H]1CNC(=O)c1cc(F)c(-c2ccccc2C#N)nc1NCCc1cccc(F)c1` [N-[((2R)-1-{3-[(tert-butoxy)carbonylamino]propyl}-5-oxopyrrolidin-2-yl)methyl](6-(2-cyanophenyl)-5-fluoro-2-{[2-(3-fluorophenyl)ethyl]amino}(3-pyridyl))carboxamide], the 50% inhibitory concentration (IC50) is 845 nM. Consider `CC(C)(C)OC(=O)NCCCN1C(=O)CCC[C@@H]1CNC(=O)c1ccc(-c2ccccc2C#N)nc1NCCc1cccc(F)c1` [N-[((2R)-1-{3-[(tert-butoxy)carbonylamino]propyl}-6-oxo(2-piperidyl))methyl](6-(2-cyanophenyl)-2-{[2-(3-fluorophenyl)ethyl]amino}(3-pyridyl))carboxamide], for which the half-inhibitory concentration (IC50) turned out to be 392 nM. For `CC(C)(C)OC(=O)NCCCN1CCC[C@@H]1CNC(=O)c1ccc(-c2ccccc2C#N)nc1NCCc1cccc(F)c1` [N-[((2R)-1-{3-[(tert-butoxy)carbonylamino]propyl}pyrrolidin-2-yl)methyl](6-(2-cyanophenyl)-2-{[2-(3-fluorophenyl)ethyl]amino}(3-pyridyl))carboxamide], the IC50 came to 1340 nM.

On to `Cn1cc(-c2nc(NCCc3cccc(F)c3)c(C(=O)NC[C@H]3CCN3C(=O)CCCNC(=O)OC(C)(C)C)cc2F)cn1` [N-[((2R)-1-{4-[(tert-butoxy)carbonylamino]butanoyl}azetidin-2-yl)methyl](5-fluoro-2-{[2-(3-fluorophenyl)ethyl]amino}-6-(1-methylpyrazol-4-yl)(3-pyridyl))carboxamide], for which the IC50 came to 122 nM. To `Cc1cc(C(=O)NC[C@H]2CCCN2C(=O)CCCNC(=O)OC(C)(C)C)c(NCCc2cccc(F)c2)nc1-c1cnn(C)c1` [N-[((2R)-1-{4-[(tert-butoxy)carbonylamino]butanoyl}pyrrolidin-2-yl)methyl](2-{[2-(3-fluorophenyl)ethyl]amino}-5-methyl-6-(1-methylpyrazol-4-yl)(3-pyridyl))carboxamide] belongs 2260 nM; to `Cn1cc(-c2ccc(C(=O)NC[C@H]3CCCN3C(=O)CCCNC(=O)OC(C)(C)C)c(NCCc3cccc(F)c3)n2)cn1` [N-[((2R)-1-{4-[(tert-butoxy)carbonylamino]butanoyl}pyrrolidin-2-yl)methyl](2-{[2-(3-fluorophenyl)ethyl]amino}-6-(1-methylpyrazol-4-yl)(3-pyridyl))carboxamide], 3650 nM.

Consider `Cn1cc(-c2nc(NCCc3cccc(F)c3)c(C(=O)NC[C@H]3CCCN3C(=O)CCCNC(=O)OC(C)(C)C)cc2Cl)cn1` [N-[((2R)-1-{4-[(tert-butoxy)carbonylamino]butanoyl}pyrrolidin-2-yl)methyl](5-chloro-2-{[2-(3-fluorophenyl)ethyl]amino}-6-(1-methylpyrazol-4-yl)(3-pyridyl))carboxamide], for which the IC50 turned out to be 683 nM. Turning to `Cn1cc(-c2nc(NCCc3cccc(F)c3)c(C(=O)NC[C@H]3CCCN3C(=O)CCCNC(=O)OC(C)(C)C)cc2C#N)cn1` [N-[((2R)-1-{4-[(tert-butoxy)carbonylamino]butanoyl}pyrrolidin-2-yl)methyl](5-cyano-2-{[2-(3-fluorophenyl)ethyl]amino}-6-(1-methylpyrazol-4-yl)(3-pyridyl))carboxamide], the IC50 is 1610 nM.

For `CC(C)(C)OC(=O)NCCCC(=O)N1CCC[C@@H]1CNC(=O)c1cc(C#N)c(-c2cn[nH]c2)nc1NCCc1cccc(F)c1` [N-[((2R)-1-{4-[(tert-butoxy)carbonylamino]butanoyl}pyrrolidin-2-yl)methyl](5-cyano-2-{[2-(3-fluorophenyl)ethyl]amino}-6-pyrazol-4-yl(3-pyridyl))carboxamide], the IC50 amounted to 3420 nM. As for `Cn1cc(-c2nc(NCCc3cccc(F)c3)c(C(=O)NC[C@H]3CCCN3C(=O)CCCNC(=O)OC(C)(C)C)cc2F)cn1` [N-[((2R)-1-{4-[(tert-butoxy)carbonylamino]butanoyl}pyrrolidin-2-yl)methyl](5-fluoro-2-{[2-(3-fluorophenyl)ethyl]amino}-6-(1-methylpyrazol-4-yl)(3-pyridyl))carboxamide], the IC50 was 483 nM.

Consider `CC(C)(C)OC(=O)NCCCC(=O)N1CCC[C@@H]1CNC(=O)c1cc(F)c(-c2cn[nH]c2)nc1NCCc1cccc(F)c1` [N-[((2R)-1-{4-[(tert-butoxy)carbonylamino]butanoyl}pyrrolidin-2-yl)methyl](5-fluoro-2-{[2-(3-fluorophenyl)ethyl]amino}-6-pyrazol-4-yl(3-pyridyl))carboxamide], for which the IC50 amounted to 750 nM. Consider `CC(C)(C)OC(=O)NCCCC(=O)N1CCC[C@@H]1CNC(=O)c1ccc(-c2ccccc2C#N)nc1NCCc1cccc(F)c1` [N-[((2R)-1-{4-[(tert-butoxy)carbonylamino]butanoyl}pyrrolidin-2-yl)methyl](6-(2-cyanophenyl)-2-{[2-(3-fluorophenyl)ethyl]amino}(3-pyridyl))carboxamide], for which the IC50 was found to be 432 nM. Consider `CC(C)(C)OC(=O)NCCCC(=O)N1CCC[C@@H]1CNC(=O)c1cc(F)c(-c2ccccc2C#N)nc1NCCc1cccc(F)c1` [N-[((2R)-1-{4-[(tert-butoxy)carbonylamino]butanoyl}pyrrolidin-2-yl)methyl](6-(2-cyanophenyl)-5-fluoro-2-{[2-(3-fluorophenyl)ethyl]amino}(3-pyridyl))carboxamide], for which the IC50 turned out to be 1060 nM. To `CC(C)(C)OC(=O)NCCCCC(=O)N1CCC[C@@H]1CNC(=O)c1ccc(-c2ccccc2C#N)nc1NCCc1cccc(F)c1` [N-[((2R)-1-{5-[(tert-butoxy)carbonylamino]pentanoyl}pyrrolidin-2-yl)methyl](6-(2-cyanophenyl)-2-{[2-(3-fluorophenyl)ethyl]amino}(3-pyridyl))carboxamide] belongs 2940 nM; to `Cn1cc(-c2nc(NCCc3cccc(F)c3)c(C(=O)NC[C@H]3CCCN3C(=O)[C@H](CCCNC(=O)OC(C)(C)C)NC(=O)OC(C)(C)C)cc2F)cn1` [N-[((2R)-1-{(2S)-2,5-bis[(tert-butoxy)carbonylamino]pentanoyl}pyrrolidin-2-yl)methyl](5-fluoro-2-{[2-(3-fluorophenyl)ethyl]amino}-6-(1-methylpyrazol-4-yl)(3-pyridyl))carboxamide], 19600 nM; to `CC(C)(C)OC(=O)N[C@@H](CO)C(=O)N1CCC[C@@H]1CNC(=O)c1cc(F)c(-c2cn[nH]c2)nc1NCCc1cccc(F)c1` [N-[((2R)-1-{(2S)-2-[(tert-butoxy)carbonylamino]-3-hydroxypropanoyl}pyrrolidin-2-yl)methyl](5-fluoro-2-{[2-(3-fluorophenyl)ethyl]amino}-6-pyrazol-4-yl(3-pyridyl))carboxamide], 1000 nM. To `N#Cc1ccccc1-c1ccc(C(=O)NC[C@H]2CCCN2S(=O)(=O)CCCN2C(=O)c3ccccc3C2=O)c(NCCc2cccc(F)c2)n1` [N-[((2R)-1-{[3-(1,3-dioxobenzo[c]azolin-2-yl)propyl]sulfonyl}pyrrolidin-2-yl)methyl](6-(2-cyanophenyl)-2-{[2-(3-fluorophenyl)ethyl]amino}(3-pyridyl))carboxamide] belongs 11300 nM.
